In ChEMBL document CHEMBL1145670, “Additional New Maytansinoids from Trewia nudiflora: 10-Epitrewiasine and Nortrewiasine” (1983):
Values after ≈ are worked out from the molar mass of the structure shown.

How the values were obtained:
Format in all cases: functional
P388 [1] = assay: In vivo antileukemic activity against mouse P388 cells at 4 mg/kg
KB = assay: Cytotoxicity against human KB cells; details: for EC50: Homo sapiens, KB, read-out: ED50 (the source's name)
P388 [2] = assay: In vivo antileukemic activity against mouse P388 cells at 32 mg/kg
P388 [3] = assay: In vivo antileukemic activity against mouse P388 cells at 8 mg/kg
P388 [4] = assay: In vivo antileukemic activity against mouse P388 cells at 16 mg/kg

Compound: COc1cc2cc(c1Cl)N1CC(=O)C(C)(O)C(=O)N(C)C(C)C(=O)O[C@@H](CC1=O)[C@]1(C)O[C@H]1[C@H](C)[C@@H]1C[C@@](O)(NC(=O)O1)[C@H](OC)/C=C/C=C(\C)C2OC (stereo partly drawn)
- T/C (P388 [1]): 153%
- EC50 (KB): < 0.01 µg/mL

Compound: COc1cc2cc(c1Cl)N(C)C(=O)C[C@H](OC(=O)[C@H](C)N(C)C(=O)C(C)C)[C@]1(C)O[C@H]1[C@H](C)[C@@H]1C[C@@](O)(NC(=O)O1)[C@@H](OC)/C=C/C=C(\C)C2OC (stereo partly drawn)
- EC50 (KB): < 0.001 µg/mL
- T/C (P388 [2]): 131%

Compound: COc1cc2cc(c1Cl)N(C)C(=O)C[C@H](OC(=O)[C@H](C)N(C)C(=O)C(C)C)[C@]1(C)O[C@H]1[C@H](C)[C@@H]1C[C@@](O)(NC(=O)O1)[C@H](OC)/C=C/C=C(\C)C2O (stereo partly drawn) [COLUBRINOL]
- EC50 (KB): < 0.001 µg/mL
- T/C (P388 [2]): 159%

Compound: C=C(C)C(=O)N(C)[C@@H](C)C(=O)O[C@H]1CC(=O)N(C)c2cc(cc(OC)c2Cl)C(OC)/C(C)=C/C=C/[C@@H](OC)[C@@]2(O)C[C@H](OC(=O)N2)[C@@H](C)[C@@H]2O[C@@]12C (stereo partly drawn) [DEHYDROTREWIASINE]
- T/C (P388 [3]): 172%
- EC50 (KB): < 0.01 µg/mL

Compound: COc1cc2cc(c1Cl)N(C)C(=O)C[C@H](OC(=O)[C@H](C)NC(=O)C(C)C)[C@]1(C)O[C@H]1[C@H](C)[C@@H]1C[C@@](O)(NC(=O)O1)[C@H](OC)/C=C/C=C(\C)C2OC (stereo partly drawn) [DEMETHYLTREWIASINE]
- T/C (P388 [3]): 159%
- EC50 (KB): 0.049 µg/mL (≈ 0.0666 µM)

Compound: COc1cc2cc(c1Cl)NC(=O)C[C@H](OC(=O)[C@H](C)N(C)C(=O)C(C)C)[C@]1(C)O[C@H]1[C@H](C)[C@@H]1C[C@@](O)(NC(=O)O1)[C@H](OC)/C=C/C=C(\C)C2OC (stereo partly drawn) [NORTREWIASINE]
- T/C (P388 [4]): 155%
- ED50 (KB): <1 ×10⁻⁴ ug/ml

Compound: COc1cc2cc(c1Cl)N1CCC(C)(O)C(=O)NC(C)C(=O)O[C@@H](CC1=O)[C@]1(C)O[C@H]1[C@H](C)[C@@H]1C[C@@](O)(NC(=O)O1)[C@H](OC)/C=C/C=C(\C)C2OC (stereo partly drawn) [TREFLORINE]
- T/C (P388 [4]): 157%
- ED50 (KB): 2.7 ×10⁻⁴ ug/ml

Compound: COc1cc2cc(c1Cl)N1CC(O)C(C)(O)C(=O)NC(C)C(=O)O[C@@H](CC1=O)[C@]1(C)O[C@H]1[C@H](C)[C@@H]1C[C@@](O)(NC(=O)O1)[C@H](OC)/C=C/C=C(\C)C2OC (stereo partly drawn) [TRENUDINE]
- T/C (P388 [3]): 146%
- ED50 (KB): 6.4 ×10⁻⁴ ug/ml

Compound: COc1cc2cc(c1Cl)N(C)C(=O)C[C@H](OC(=O)[C@H](C)N(C)C(=O)C(C)C)[C@]1(C)O[C@H]1[C@H](C)[C@@H]1C[C@@](O)(NC(=O)O1)[C@H](OC)/C=C/C=C(\C)C2OC (stereo partly drawn) [TREWIASINE]
- T/C (P388 [4]): 154%
- ED50 (KB): 2 ×10⁻⁴ ug/ml
